Results published in US20260248926A1, “BIFUNCTIONAL COMPOUND AND PHARMACEUTICAL COMPOSITION COMPRISING THE BIFUNCTIONAL COMPOUND, AND METHOD FOR TREATING ANDROGEN RECEPTOR RELATED DISEASE BY USING THE SAME” (ANHORN MEDICINES CO., LTD., priority 2022, published 2026).

The compounds below were run against T1, androgen receptor (Homo sapiens, UniProt P10275, T878A) (assay: Androgen receptor degradation assay using Western blot analysis in LNCaP.FGC cells). Conditions: concentration needed for 50% AR degradation, 24 hr treatment, read-out: AR DC50.
T1 construct: Several compounds were selected and serial diluted (10×) with RPMI medium for treating LNCaP.FGC cells; host or cells: LNCaP.FGC
T1 sequence (P10275 whole entry T878A): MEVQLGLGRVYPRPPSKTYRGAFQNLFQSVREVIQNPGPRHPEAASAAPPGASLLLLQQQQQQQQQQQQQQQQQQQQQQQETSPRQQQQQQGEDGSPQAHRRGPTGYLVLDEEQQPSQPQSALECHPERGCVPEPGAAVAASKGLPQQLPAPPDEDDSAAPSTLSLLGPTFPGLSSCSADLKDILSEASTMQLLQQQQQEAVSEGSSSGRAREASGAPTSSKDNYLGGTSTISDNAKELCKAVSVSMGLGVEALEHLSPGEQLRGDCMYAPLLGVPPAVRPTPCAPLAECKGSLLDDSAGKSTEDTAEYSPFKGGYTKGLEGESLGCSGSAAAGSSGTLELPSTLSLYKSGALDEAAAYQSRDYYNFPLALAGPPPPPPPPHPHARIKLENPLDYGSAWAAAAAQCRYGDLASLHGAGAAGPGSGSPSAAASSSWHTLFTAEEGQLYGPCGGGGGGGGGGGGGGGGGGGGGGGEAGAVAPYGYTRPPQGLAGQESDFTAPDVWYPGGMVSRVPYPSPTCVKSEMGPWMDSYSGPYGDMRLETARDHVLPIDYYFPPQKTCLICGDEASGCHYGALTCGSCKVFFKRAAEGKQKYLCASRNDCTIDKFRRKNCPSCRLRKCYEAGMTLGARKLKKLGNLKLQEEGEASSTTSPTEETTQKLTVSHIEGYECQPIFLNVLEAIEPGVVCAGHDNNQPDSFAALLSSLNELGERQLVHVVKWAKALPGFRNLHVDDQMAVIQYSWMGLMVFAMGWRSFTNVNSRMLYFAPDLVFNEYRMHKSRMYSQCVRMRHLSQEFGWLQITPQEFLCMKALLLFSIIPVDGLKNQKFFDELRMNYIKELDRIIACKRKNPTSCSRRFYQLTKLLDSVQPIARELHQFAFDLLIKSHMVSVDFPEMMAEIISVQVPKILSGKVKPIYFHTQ
T1 sequence (Q96SW2 whole entry partner): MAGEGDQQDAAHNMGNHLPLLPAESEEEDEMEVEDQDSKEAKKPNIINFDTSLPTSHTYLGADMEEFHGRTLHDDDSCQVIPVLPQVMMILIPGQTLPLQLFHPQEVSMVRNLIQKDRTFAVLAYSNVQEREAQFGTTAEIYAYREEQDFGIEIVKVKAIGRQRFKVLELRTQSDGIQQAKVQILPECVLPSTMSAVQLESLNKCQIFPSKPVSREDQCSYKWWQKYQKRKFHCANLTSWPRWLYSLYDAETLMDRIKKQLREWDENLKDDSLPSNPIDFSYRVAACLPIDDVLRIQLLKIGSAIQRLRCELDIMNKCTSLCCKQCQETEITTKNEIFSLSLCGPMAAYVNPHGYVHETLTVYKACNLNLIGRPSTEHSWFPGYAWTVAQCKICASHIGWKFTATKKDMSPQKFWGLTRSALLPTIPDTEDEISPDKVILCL
Assay type: cell-based
Method: The internal loading control GAPDH was detected using a mouse monoclonal antibody (1:5000) (GTX627408, GeneTex International Corp., HsinChu City, Taiwan R.O.C.) and a goat anti-mouse HRP-conjugated secondary antibody (1:5000 dilution) (C04001, Croyez Bioscience Co., Ltd., Taipei City, Taiwan R.O.C.).
Several compounds were selected and serial diluted (10×) with RPMI medium for treating LNCaP.FGC cells. A calibration curve was determined by the serial diluted samples for each compound, and the concentration needed for 50% AR degradation (AR DC50) for each compound was calculated.
For Cn1c2c(c3cc(N4CCN(CC5CN(c6ccc(C(=O)N[C@H]7CC[C@H](Oc8ccc(C#N)c(Cl)c8)CC7)nn6)C5)CC4)ccc31)C(=O)N(C1CCC(=O)NC1=O)C2=O (stereo partly shown) [Compound 47], the DC50 was 25 to 100 nM. For Cn1c2c(c3ccc(N4CCN(CC5CCN(c6ncc(C(=O)N[C@H]7CC[C@H](Oc8ccc(C#N)c(Cl)c8)CC7)cn6)CC5)CC4)cc31)C(=O)N(C1CCC(=O)NC1=O)C2=O (stereo partly shown) [Compound 35], the DC50 was 10 to 25 nM. Work on Cn1c2c(c3cc(N4CCN(CC5CCN(c6ccc(C(=O)N[C@H]7CC[C@H](Oc8ccc(C#N)c(Cl)c8)CC7)nn6)CC5)CC4)ccc31)C(=O)N(C1CCC(=O)NC1=O)C2=O (stereo partly shown) [Compound 41] yielded a DC50 of over 100 nM. Compound Cn1c2c(c3ccc(N4CCN(CC5CN(c6ccc(C(=O)N[C@H]7CC[C@H](Oc8ccc(C#N)c(Cl)c8)CC7)nn6)C5)CC4)cc31)C(=O)N(C1CCC(=O)NC1=O)C2=O (stereo partly shown) [Compound 1] has a DC50 of under 10 nM. Cn1c2c(c3ccc(C4CCN(CC5CCN(c6ccc(C(=O)N[C@H]7CC[C@@H](Oc8ccc(C#N)c(Cl)c8)CC7)nn6)CC5)CC4)cc31)C(=O)N(C1CCC(=O)NC1=O)C2=O (stereo partly shown) [Compound 30] gave a DC50 of under 10 nM. With Cn1c2c(c3cc(N4CCN(CC5CCN(c6ccc(C(=O)N[C@H]7CC[C@@H](Oc8ccc(C#N)c(Cl)c8)CC7)nn6)CC5)CC4)ccc31)C(=O)N(C1CCC(=O)NC1=O)C2=O (stereo partly shown) [Compound 42] the DC50 was 25 to 100 nM. Compound Cn1c2c(c3ccc(N4CCN(CC5CCN(c6ccc(C(=O)N[C@H]7C(C)(C)[C@@H](Oc8ccc(C#N)c(Cl)c8)C7(C)C)cn6)CC5)CC4)cc31)C(=O)N(C1CCC(=O)NC1=O)C2=O (stereo partly shown) [Compound 28] has a DC50 of 25 to 100 nM. In the case of Cn1c2c(c3ccc(C4CCN(CC5CN(c6ccc(C(=O)N[C@H]7CC[C@H](Oc8ccc(C#N)c(Cl)c8)CC7)nn6)C5)CC4)cc31)C(=O)N(C1CCC(=O)NC1=O)C2=O (stereo partly shown) [Compound 2], the DC50 is reported as under 10 nM. Compound Cn1c2c(c3ccc(C4CCN(CC5CCN(c6ccc(C(=O)N[C@H]7CC[C@H](Oc8ccc(C#N)c(Cl)c8)CC7)nn6)C5)CC4)cc31)C(=O)N(C1CCC(=O)NC1=O)C2=O (stereo partly shown) [Compound 34] has a DC50 of 10 to 25 nM. Cn1c2c(c3ccc(N4CCN(CC5CCN(c6ccc(C(=O)N[C@H]7CC[C@@H](Oc8ccc(C#N)c(Cl)c8)CC7)nn6)CC5)CC4)cc31)C(=O)N(C1CCC(=O)NC1=O)C2=O (stereo partly shown) [Compound 22] was tested, and the DC50 was 10 to 25 nM. For Cn1c2c(c3ccc(C4CCN(CC5CCN(c6ccc(C(=O)N[C@H]7CC[C@H](Oc8ccc(C#N)c(Cl)c8)CC7)nn6)CC5)CC4)cc31)C(=O)N(C1CCC(=O)NC1=O)C2=O (stereo partly shown) [Compound 29], the DC50 was 10 to 25 nM. Cn1c2c(c3ccc(N4CCN(CC5CCN(c6ccc(C(=O)N[C@H]7CC[C@H](Oc8ccc(C#N)c(Cl)c8)CC7)nn6)CC5)CC4)cc31)C(=O)N(C1CCC(=O)NC1=O)C2=O (stereo partly shown) [Compound 21] gave a DC50 of under 10 nM. Cn1c2c(c3ccc(N4CCN(CC5CCN(c6ccc(C(=O)N[C@H]7C(C)(C)[C@H](Oc8ccc(C#N)c(Cl)c8)C7(C)C)cn6)CC5)CC4)cc31)C(=O)N(C1CCC(=O)NC1=O)C2=O (stereo partly shown) [Compound 27] showed a DC50 of 10 to 25 nM.

Same assay, conditions: read-out: AR DC50, concentration needed for 50% AR degradation, 24 hr treatment
For CCn1c2c(c3ccc(N4CCN(CC5CCN(c6ccc(C(=O)N[C@H]7C(C)(C)[C@H](Oc8ccc(C#N)c(Cl)c8)C7(C)C)cc6)CC5)CC4)cc31)C(=O)N(C1CCC(=O)NC1=O)C2=O (stereo partly shown) [Compound 15], the DC50 was 25 to 100 nM. Compound CCn1c2c(c3ccc(N4CCN(CC5CCN(c6ccc(C(=O)N[C@H]7CC[C@H](Oc8ccc(C#N)c(Cl)c8)CC7)nn6)CC5)CC4)cc31)C(=O)N([C@H]1CCC(=O)NC1=O)C2=O [Compound 36] has a DC50 of 10 to 25 nM. With CCn1c2c(c3ccc(N4CCC(CN5CCC(c6ccc(C(=O)N[C@H]7CC[C@H](Oc8ccc(C#N)c(Cl)c8)CC7)nn6)CC5)CC4)cc31)C(=O)N(C1CCC(=O)NC1=O)C2=O (stereo partly shown) [Compound 40] the DC50 was 10 to 25 nM. CCn1c2c(c3ccc(C4CCN(CC5CCN(c6ccc(C(=O)N[C@H]7C(C)(C)[C@H](Oc8ccc(C#N)c(Cl)c8)C7(C)C)cc6)CC5)CC4)cc31)C(=O)N(C1CCC(=O)NC1=O)C2=O (stereo partly shown) [Compound 24] showed a DC50 of 25 to 100 nM. With CCn1c2c(c3ccc(N4CCN(CC5CCN(c6ccc(C(=O)N[C@H]7CC[C@@H](Oc8ccc(C#N)c(Cl)c8)CC7)cn6)CC5)CC4)cc31)C(=O)N(C1CCC(=O)NC1=O)C2=O (stereo partly shown) [Compound 5] the DC50 was 25 to 100 nM. CCn1c2c(c3ccc(C4CCN(CC5CN(c6ccc(C(=O)N[C@H]7CC[C@H](Oc8ccc(C#N)c(Cl)c8)CC7)nn6)C5)CC4)cc31)C(=O)N(C1CCC(=O)NC1=O)C2=O (stereo partly shown) [Compound 10] showed a DC50 of under 10 nM. Compound CCn1c2c(c3ccc(N4CCN(CC5CCN(c6ccc(C(=O)N[C@H]7CC[C@H](Oc8ccc(C#N)c(Cl)c8)CC7)nn6)CC5)CC4)cc31)C(=O)N(C1CCC(=O)NC1=O)C2=O (stereo partly shown) [Compound 23] has a DC50 of 10 to 25 nM. CCn1c2c(c3ccc(N4CCN(CC5CCN(c6ncc(C(=O)N[C@H]7CC[C@H](Oc8ccc(C#N)c(Cl)c8)CC7)cn6)CC5)CC4)cc31)C(=O)N(C1CCC(=O)NC1=O)C2=O (stereo partly shown) [Compound 25] showed a DC50 of 10 to 25 nM. For CCn1c2c(c3ccc(N4CCN(CC5CCN(c6ccc(C(=O)N[C@H]7C(C)(C)[C@H](Oc8ccc(C#N)c(Cl)c8)C7(C)C)cn6)CC5)CC4)cc31)C(=O)N(C1CCC(=O)NC1=O)C2=O (stereo partly shown) [Compound 6], the DC50 was 25 to 100 nM. Work on CCn1c2c(c3ccc(C4CCN(CC5CCN(c6ccc(C(=O)N[C@H]7CC[C@H](Oc8ccc(C#N)c(Cl)c8)CC7)nn6)C5)CC4)cc31)C(=O)N(C1CCC(=O)NC1=O)C2=O (stereo partly shown) [Compound 18] yielded a DC50 of 10 to 25 nM. Compound CCn1c2c(c3ccc(N4CCN(CC5CCN(c6ccc(C(=O)N[C@H]7CC[C@@H](Oc8ccc(C#N)c(Cl)c8)CC7)nn6)CC5)CC4)cc31)C(=O)N(C1CCC(=O)NC1=O)C2=O (stereo partly shown) [Compound 33] has a DC50 of under 10 nM. Compound CCn1c2c(c3ccc(N4CCN(CC5CN(c6ccc(C(=O)N[C@H]7CC[C@H](Oc8ccc(C#N)c(Cl)c8)CC7)nn6)C5)CC4)cc31)C(=O)N(C1CCC(=O)NC1=O)C2=O (stereo partly shown) [Compound 3] has a DC50 of under 10 nM. In the case of CCn1c2c(c3ccc(N4CCN(CC5CCN(c6ccc(C(=O)N[C@H]7CC[C@H](Oc8ccc(C#N)c(Cl)c8)CC7)nn6)C5)CC4)cc31)C(=O)N(C1CCC(=O)NC1=O)C2=O (stereo partly shown) [Compound 17], the DC50 is reported as 10 to 25 nM. Work on CCn1c2c(c3ccc(N4CCN(CC5CCN(c6ccc(C(=O)N[C@H]7C(C)(C)[C@@H](Oc8ccc(C#N)c(Cl)c8)C7(C)C)cn6)CC5)CC4)cc31)C(=O)N(C1CCC(=O)NC1=O)C2=O (stereo partly shown) [Compound 7] yielded a DC50 of 25 to 100 nM. For CCn1c2c(c3ccc(N4CCN(CC5CCN(c6ccc(C(=O)N[C@H]7C(C)(C)[C@H](Oc8ccc(C#N)c(Cl)c8)C7(C)C)nn6)CC5)CC4)cc31)C(=O)N(C1CCC(=O)NC1=O)C2=O (stereo partly shown) [Compound 8], the DC50 was 25 to 100 nM. With CCn1c2c(c3ccc(N4CCN(CC5CCN(c6ccc(C(=O)N[C@H]7CC[C@@H](Oc8ccc(C#N)c(Cl)c8)CC7)nn6)CC5)CC4)cc31)C(=O)N([C@H]1CCC(=O)NC1=O)C2=O [Compound 39] the DC50 was 10 to 25 nM. For CCn1c2c(c3ccc(N4CCC5(CC4)CN(CC4CCN(c6ccc(C(=O)N[C@H]7CC[C@H](Oc8ccc(C#N)c(Cl)c8)CC7)nn6)CC4)C5)cc31)C(=O)N(C1CCC(=O)NC1=O)C2=O (stereo partly shown) [Compound 51], the DC50 was under 10 nM. CCn1c2c(c3ccc(C4CCN(CC5CCN(c6ccc(C(=O)N[C@H]7CC[C@H](Oc8ccc(C#N)c(Cl)c8)CC7)nn6)CC5)CC4)cc31)C(=O)N(C1CCC(=O)NC1=O)C2=O (stereo partly shown) [Compound 11] gave a DC50 of under 10 nM. CCn1c2c(c3ccc(C4CCN(CC5CCN(c6ccc(C(=O)N[C@H]7CC[C@@H](Oc8ccc(C#N)c(Cl)c8)CC7)nn6)CC5)CC4)cc31)C(=O)N(C1CCC(=O)NC1=O)C2=O (stereo partly shown) [Compound 12] gave a DC50 of 10 to 25 nM. For CCn1c2c(c3ccc(N4CCN(CC5CCN(c6ccc(C(=O)N[C@H]7C(C)(C)[C@@H](Oc8ccc(C#N)c(Cl)c8)C7(C)C)cc6)CC5)CC4)cc31)C(=O)N(C1CCC(=O)NC1=O)C2=O (stereo partly shown) [Compound 16], the DC50 was over 100 nM. With CCn1c2c(c3ccc(C4=CCN(CC5CCN(c6ccc(C(=O)N[C@H]7CC[C@H](Oc8ccc(C#N)c(Cl)c8)CC7)nn6)CC5)CC4)cc31)C(=O)N(C1CCC(=O)NC1=O)C2=O (stereo partly shown) [Compound 48] the DC50 was 10 to 25 nM. CCn1c2c(c3ccc(N4CCN(CC5CCN(c6ncc(C(=O)N[C@H]7CC[C@@H](Oc8ccc(C#N)c(Cl)c8)CC7)cn6)CC5)CC4)cc31)C(=O)N(C1CCC(=O)NC1=O)C2=O (stereo partly shown) [Compound 26] gave a DC50 of over 100 nM. CCn1c2c(c3ccc(N4CCN(CC5CCN(c6ccc(C(=O)N[C@H]7CC[C@H](Oc8ccc(C#N)c(Cl)c8)CC7)cn6)CC5)CC4)cc31)C(=O)N(C1CCC(=O)NC1=O)C2=O (stereo partly shown) [Compound 4] gave a DC50 of 25 to 100 nM. CCn1c2c(c3ccc(N4CCN(CC5CCN(c6ccc(C(=O)N[C@H]7C(C)(C)[C@@H](Oc8ccc(C#N)c(Cl)c8)C7(C)C)nn6)CC5)CC4)cc31)C(=O)N(C1CCC(=O)NC1=O)C2=O (stereo partly shown) [Compound 9] was tested, and the DC50 was 25 to 100 nM.
